Data as given in PubChem BioAssay (NCI).
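GI50 is the concentration that inhibits growth by half. TGI denotes the concentration required for complete inhibition of growth.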

Columns and labels:
Test in all cases: NCI-60 cell line screen, 384-well format
SK-MEL-28 melanoma = tested on: SK-MEL-28 melanoma
SW-620 colon = tested on: SW-620 colon
MDA-MB-231 breast = tested on: MDA-MB-231 breast
RXF 393 renal = tested on: RXF 393 renal
NCI-H522 lung = tested on: NCI-H522 lung
NCI-H460 NSCLC = tested on: NCI-H460 NSCLC
EKVX NSCLC = tested on: EKVX NSCLC
SR leukemia = tested on: SR leukemia
CCRF-CEM leukemia = tested on: CCRF-CEM leukemia
OVCAR-4 ovarian = tested on: OVCAR-4 ovarian
NCI-H23 lung = tested on: NCI-H23 lung
OVCAR-3 ovarian = tested on: OVCAR-3 ovarian
M14 melanoma = tested on: M14 melanoma
HL-60(TB) leukemia = tested on: HL-60(TB) leukemia
UACC-62 melanoma = tested on: UACC-62 melanoma
A498 renal = tested on: A498 renal
DU-145 prostate = tested on: DU-145 prostate
MDA-MB-435 melanoma = tested on: MDA-MB-435 melanoma
K-562 leukemia = tested on: K-562 leukemia
COLO 205 colon = tested on: COLO 205 colon
LOX IMVI melanoma = tested on: LOX IMVI melanoma
NCI-H322M lung = tested on: NCI-H322M lung
HCT-116 colon = tested on: HCT-116 colon
SNB-75 CNS = tested on: SNB-75 CNS
SK-MEL-2 melanoma = tested on: SK-MEL-2 melanoma
A549 NSCLC = tested on: A549 NSCLC
786-0 renal = tested on: 786-0 renal
MOLT-4 leukemia = tested on: MOLT-4 leukemia
T-47D breast = tested on: T-47D breast

## NC(=O)c1ccc2nc(-c3ccc(Oc4ccc(Cl)cc4)cc3)[nH]c2c1
SK-MEL-28 melanoma
  GI50: 22.2 µM
  TGI: 80 µM
SW-620 colon
  GI50: 15.4 µM
  TGI: 63.2 µM
MDA-MB-231 breast
  GI50: 21.5 µM
  TGI: 46.1 µM
RXF 393 renal
  GI50: 10.6 µM
  TGI: 27.7 µM
NCI-H522 lung
  GI50: 14.9 µM
  TGI: 46.2 µM
NCI-H460 NSCLC
  GI50: 14.8 µM
  TGI: 29.1 µM
EKVX NSCLC
  GI50: 21.7 µM
  TGI: 68.4 µM
SR leukemia
  GI50: 3.77 µM
  TGI: 14.1 µM
CCRF-CEM leukemia
  GI50: 15.3 µM
  TGI: 29.7 µM
OVCAR-4 ovarian
  GI50: 11.4 µM
  TGI: 37.1 µM
NCI-H23 lung
  GI50: 20.1 µM
  TGI: 76 µM
OVCAR-3 ovarian
  GI50: 12.1 µM
  TGI: 25.4 µM
M14 melanoma
  GI50: 20.2 µM
  TGI: 50.3 µM
HL-60(TB) leukemia
  GI50: 15 µM
  TGI: 28.4 µM
UACC-62 melanoma
  GI50: 25.2 µM
  TGI: 75.1 µM
A498 renal
  GI50: 16.1 µM
  TGI: 31.6 µM
DU-145 prostate
  GI50: 15 µM
  TGI: 36.9 µM
MDA-MB-435 melanoma
  GI50: 23.2 µM
  TGI: 68 µM
K-562 leukemia
  GI50: 7.87 µM
  TGI: 23.4 µM
COLO 205 colon
  GI50: 33.8 µM
  TGI: 97.8 µM
LOX IMVI melanoma
  GI50: 26.2 µM
  TGI: 60.7 µM
NCI-H322M lung
  GI50: 15.3 µM
  TGI: 38.6 µM
HCT-116 colon
  GI50: 16.8 µM
  TGI: 40.8 µM
SNB-75 CNS
  GI50: 22.3 µM
  TGI: 58.1 µM
SK-MEL-2 melanoma
  GI50: 33.7 µM
  TGI: 53.6 µM
A549 NSCLC
  GI50: 20.2 µM
  TGI: > 100 µM
786-0 renal
  GI50: 15 µM
  TGI: 37.1 µM
MOLT-4 leukemia
  GI50: 12.9 µM
  TGI: 25.8 µM
T-47D breast
  GI50: 11.6 µM
  TGI: 29.5 µM
